Results on seven substances are retold here after PMC7114193 (Antiviral Research, 2012).

For one test, the target named is rhACE2 (Homo sapiens, UniProt Q9BYF1). It is filed as binding.
Test [1] concerns spike protein and ACE2 interaction. The note with it: cited from earlier work.

Chain of rhACE2 (Q9BYF1 18-740): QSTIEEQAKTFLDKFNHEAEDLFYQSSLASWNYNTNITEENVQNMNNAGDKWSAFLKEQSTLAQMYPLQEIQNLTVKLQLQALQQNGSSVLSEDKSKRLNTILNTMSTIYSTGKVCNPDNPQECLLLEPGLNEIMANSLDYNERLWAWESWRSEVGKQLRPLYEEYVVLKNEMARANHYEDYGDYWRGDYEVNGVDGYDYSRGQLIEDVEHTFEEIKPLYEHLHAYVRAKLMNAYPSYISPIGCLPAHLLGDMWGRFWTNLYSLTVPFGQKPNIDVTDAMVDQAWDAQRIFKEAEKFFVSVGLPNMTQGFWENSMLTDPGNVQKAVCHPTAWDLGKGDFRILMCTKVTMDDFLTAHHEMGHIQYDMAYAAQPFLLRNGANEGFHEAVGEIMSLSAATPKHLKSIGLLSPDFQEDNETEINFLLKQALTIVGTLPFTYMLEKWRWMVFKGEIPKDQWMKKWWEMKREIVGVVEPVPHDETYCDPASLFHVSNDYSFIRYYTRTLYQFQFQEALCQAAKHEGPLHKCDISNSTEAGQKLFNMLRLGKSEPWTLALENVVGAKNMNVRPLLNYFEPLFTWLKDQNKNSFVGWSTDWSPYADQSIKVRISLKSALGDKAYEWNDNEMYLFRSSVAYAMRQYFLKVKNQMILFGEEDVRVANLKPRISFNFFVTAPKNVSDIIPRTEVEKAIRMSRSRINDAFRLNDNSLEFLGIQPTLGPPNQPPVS

In turn, ALNSYW [RBD-14a] came in with an SPR response on rhACE2 of 5 RU.
On to FYTTTGIGYQPY [SP-8], for which the “inhibition of spike protein and ACE2 interaction (in words)” value in test [1] is listed as “inhibitory activity”.
Regarding IGYQPY [RBD-15c], at rhACE2, the “SPR binding to ACE2 (in words)” value was “no interaction observable”.
On rhACE2, NYNYKY [RBD-11a] came in with an SPR response signal of 5 RU.
In the case of SYWPLN [RBD-14b], at rhACE2, the “SPR binding to ACE2 (in words)” value was “only weak interaction” and the SPR response was found to be 7 RU.
YDYRYL: the “SPR binding to ACE2 (in words)” value at rhACE2 is recorded as “No binding was observed”.
For the substance YKYDYL, the “SPR binding to ACE2 (in words)” value at rhACE2 was “No binding was observed”.
